Columns and labels:
WT MV4; 11 cell line [1] = test: Cell death analysis (PI, Cell titer glow) in WT MV4;11; type: cell-based, human; conditions: 24 h
Procedure: (§1) Cells were seeded at a constant density prior to treatment in triplicate and treated with either ironomycin or DMSO over the indicated time period. Drug was refreshed at least every two days. Cells were stained with DAPI and live cell number was calculated using the BD FACSVerse (BD Biosciences). CellTitreGlo (Promega) assays were performed as per manufacturer's instructions in a 96 well plate format. To determine the half-maximal inhibitory concentration (IC50) for ironomycin, 24 h after seeding the cells at a constant density in triplicate, cells were treated with ironomcyin or DMSO for 72 hours. At day 3, after incubating the cells with 600 μM of resazurin for 6 h, fluorescence was measured at λex=530 nm and λem=590 nm, using a Microplate Reader (EnSpire, Perkin Elmer). Relative fluorescence units were converted to per cent of inhibition relative to controls on the same plate, and the data were fitted against a four-parameter logistic model to determine the IC50.
(§2) Cell death, cells were washed once with PBS and assessed using propidium iodide PI from staining (Sigma) according to manufacturer's instructions. Lipid peroxidation was assessed with BODIPYC11 staining (Thermo Fisher D3861). Cell were washed once with PBS and stained for 30 minutes in the dark at room temperature in 1 ml of 7.5 μM PBS solution, washed once and assessed according to manufacturer's instructions. […]

MOLM-13 = test: IC50 determination (resazurin), MOLM-13; type: cell-based; conditions: Homo sapiens; MOLM-13 cell line, 72 hours
Procedure: as §1

[2] = system: mitochondrial iron in MOLM13 cells; test: ICP-MS iron on isolated mitochondria; type: cell-based, human; conditions: ICP-MS on isolated mitochondria after treatment
[3] = system: MV4,11 cells transplanted into NSG mice; test: AML xenograft model, survival; type: in vivo, mouse; conditions: 5 days/week for 4 weeks, single agent
Procedure: Ironomycin was dissolved in PBS+2.5% DMSO. […] Animals were euthanized at the completion of treatment.

K 562 = test: IC50 determination (resazurin), K 562; type: cell-based; conditions: Homo sapiens, K562; K 562 cell line, 72 hours
Procedure: as §1

[4] = system: lipid ROS in OCIAML3 and MOLM-13 cells; test: Lipid peroxidation, C11 BODIPY 581/591 staining; type: cell-based, human; conditions: 500 nM, 48 hours
Procedure: (§3) Cell death, cells were washed once with PBS and assessed using propidium iodide PI from staining (Sigma) according to manufacturer's instructions. Lipid peroxidation was assessed with BODIPYC11 staining (Thermo Fisher D3861). Cell were washed once with PBS and stained for 30 minutes in the dark at room temperature in 1 ml of 7.5 μM PBS solution, washed once and assessed according to manufacturer's instructions. Mitochondrial ROS were assessed with mitosox red probe (thermofisher M36008) according to manufacturer's instructions. All flow cytometry analyses were performed on a LSR Fortessa X-20 flow cytometer (BD Biosciences) and all data analysed with FlowJo. Cell sorting was performed on a FACSAria Fusion 5 (BD Biosciences).

MV4-11 = test: IC50 determination (resazurin), MV4-11; type: cell-based; conditions: Homo sapiens; MV4-11 cell line, 72 hours
Procedure: as §1

KASUMI-1 = test: IC50 determination (resazurin), KASUMI-1; type: cell-based; conditions: Homo sapiens; KASUMI-1 cell line, 72 hours
Procedure: as §1

[5] = system: lysosomal iron in MOLM13 cells; test: Lysosomal iron, RhoNoxM probe flow cytometry; type: cell-based, human
Procedure: Ironomycin (AM5) and AM23 were synthesized as previously described (Mai et al., 2017), venetoclax (ABT-199), biranapant and IDN-6556 are commercially available. Metformin and phenformin, were purchased from sigma (PHR1084 and PHR1573) and reconstituted freshly in culture medium. Turn-off Fe2+ probe (Petrat et al., 2002) was synthesized as previously reported (Muller et al., 2018), dose was 1 μM for 1 h for flow cytometry experiments. RhonoxM (Hirayarna et al., 2013) was synthesized as previously reported (Mai et al., 2017), dose was 1 μM, 1 h for flow cytometry experiments. Liproxstatin-1 (sigma SML1414, DMSO), ferrostatin (sigma SML0583, DMSO), RSL3 (sigma SML2234, DMSO), 6 aminonicotidamide (sigma A68203, DMSO), Z-VADfmk (R&D system FMK001, DMSO).

OCI-AML3 = test: IC50 determination (resazurin), OCI-AML3; type: cell-based; conditions: Homo sapiens, OCI-AML-3; OCI-AML3 cell line, 72 hours
Procedure: as §1

WT MV4; 11 cell line [6] = test: PI cell death in medium with different glucose concentration; type: cell-based, human; conditions: 500 nM, 48 h
Procedure: as §3

[7] = system: mitochondrial ROS in MV4; 11 and OCI-AML3; test: Mitochondrial ROS, Mitosox Red flow cytometry; type: cell-based, human; conditions: 500 nM, 24 hours
human AML cell lines = test: IC50 determination across various human AML cell lines; type: cell-based; conditions: range over various human AML cell lines, 72 hours; read-out: Half maximal inhibitory concentration (IC50)
Procedure: as §1

NB4 = test: IC50 determination (resazurin), NB4; type: cell-based; conditions: Homo sapiens, NB-4; NB4 cell line, 72 hours
Procedure: as §1

[8] = system: mitochondria in MV4; 11 cells; test: Transmission electron microscopy of mitochondria; type: cell-based, human; conditions: 500 nM, 16 h
Procedure: Cells were fixed in 2% GA in 0.1M sodium cacodylate buffer for 2 hours at room temperature, rinsed with 0.1M na-cacodylaatbuffer (5×10 min), and posffixation was done with 1% Osmium tetroxide and 1.5% Potassium ferricyanide for 2 hours at 4C in the dark. After rinsing in milliQ water, cells were stained with 0.5% Uranylacetate in MQ (±PH 4) for 1 h at 4° C. Cells were scraped and embedded in low melting agarose before serial dehydration in ethanol followed by propylene oxide and embedding into epon-araldyte resin. After polymerisation of the resin at 65 C for 48 hours, ultrathin sections were cut on a Leica UCT ultramicrotome and sections stained with uranyl acetate and lead citrate. Sections were examined on a Jeol JEM-1400Plus transmission electron microscope equipped with a Matataki flash camera at 80 keV.

HEL 92.1.7 = test: IC50 determination (resazurin), HEL 92.1.7; type: cell-based; conditions: Homo sapiens; HEL 92.1.7 cell line, 72 hours
Procedure: as §1

KG1 = test: IC50 determination (resazurin), KG1; type: cell-based; conditions: Homo sapiens, KG-1; KG1 cell line, 72 hours
Procedure: as §1

AML cell lines = test: Cell proliferation and PI cell death in AML cell lines; type: cell-based, human; conditions: all AML cell lines tested
Procedure: as §1, §2

NOMO-1 = test: IC50 determination (resazurin), NOMO-1; type: cell-based; conditions: Homo sapiens; NOMO-1 cell line, 72 hours
Procedure: as §1

HL-60 = test: IC50 determination (resazurin), HL-60; type: cell-based; conditions: Homo sapiens; HL-60 cell line, 72 hours
Procedure: as §1

[9] = Mai et al., 2017; cited from earlier work
[10] = system: cleaved PARP1 and cleaved caspase 3 in MOLM-13 cell line; test: Immunoblot of cleaved PARP1 and cleaved caspase 3; type: cell-based, human; conditions: 500 nM, 24 h
Procedure: Cells were lysed in 20 mM HEPES pIH7.9, 0.5 mM EDTA, 2% SDS plus 1× protease inhibitor cocktail (Roche) by brief sonication. Lysates were heated to 95° C. in SDS sample buffer with 50 mM DTT for 5 min, separated by SDS-PAGE and transferred to PVDF membrane (Millipore). Membranes were blocked in 5% milk or BSA in TBS +0.1% Tween-20, probed with the indicated antibodies, and reactive bands visualised using ECL Prime (GE).

SKM-1 = test: IC50 determination (resazurin), SKM-1; type: cell-based; conditions: Homo sapiens; SKM-1 cell line, 72 hours
Procedure: as §1

[11] = system: primary AML samples derived from patients with venetoclax resistant or refractory disease; test: Primary patient synergy analysis (PI viability, Bliss); type: cell-based, human; conditions: monotherapy, 1 μM, 5 days, five primary samples
Procedure: Samples were collected from patients with AML treated at the Alfred Hospital after obtaining informed consent. Studies were conducted in accordance with the approved protocols through the Human Research Ethics Committee of the Alfred Hospital and the Declaration of Helsinki for all subjects. Primary AML cells were cultured in StemSpan SFEM (Stemcell Technologies) supplemented with 10 ng/mL IL-3, 10 ng/mL IL-6, 50 ng/mL SCF and 50 ng/mL FLT3L (all Peprotech) and 35 nM UM171 and 500 nM stemreginin (StemCell Technologies). For primary patient synergy analyses, 50,000 AML cells were plated in each well of a 96-well plate, and cultured with escalating doses of ironomycin and venetoclax for 5 days in medium conditions as described above. After 5 days, viability was assessed via propidium iodide staining and flow cytometry (BD FACSCanto). Synergy was determined using the Bliss synergy model.

Compound: C#CCN[C@@H]1C=C[C@]2(O[C@H]([C@@H](CC)C(=O)[C@@H](C)[C@@H](O)[C@H](C)[C@@H]3O[C@@H]([C@@H](CC)C(=O)O)CC[C@@H]3C)[C@@H](C)C[C@H]2C)O[C@@]12CC[C@@](C)([C@H]1CC[C@](O)(CC)[C@H](C)O1)O2 [Ironomycin]
- cell death (WT MV4; 11 cell line [1]): induce cell death
- IC50 (MOLM-13): 70 nM
- total iron in mitochondria [2]: decrease in total iron into the mitochondria
- survival ([3]; ironomycin 1 mg/kg IP): did not result in any survival advantage
- IC50 (K 562): 410 nM
- lipid peroxidation [4]: induced a lipid peroxidation
- IC50 (MV4-11): 61 nM
- IC50 (KASUMI-1): 16 nM
- lysosomal iron [5]: increased lysosomal iron
- IC50 (OCI-AML3): 118 nM
- efficacy in killing AML cells (WT MV4; 11 cell line [6]; increased glucose concentration): higher efficacy
- efficacy in killing AML cells (WT MV4; 11 cell line [6]; low glucose conditions): less efficient
- mitochondrial ROS [7]: increased mitochondrial ROS
- IC50 (human AML cell lines): 14 to 410 nM
- IC50 (NB4): 47 nM
- cristae structure [8]: disturbed the cristae structure
- IC50 (HEL 92.1.7): 260 nM
- IC50 (KG1): 14 nM
- cell death (PI staining) (AML cell lines): rapid cell death
- proliferation (AML cell lines): proliferation block in a dose dependent manner
- IC50 (NOMO-1): 30 nM
- IC50 (HL-60): 26 nM
- potency relative to Salinomycin [9]: ten times more potent
- cleavage of caspase 3 and PARP1 [10]: did not cleaved caspase 3 nor PARP1
- IC50 (SKM-1): 45 nM

Compound: Venetoclax [reference compound]
- cell death (WT MV4; 11 cell line [1]): induce cell death
- survival ([3]; venetoclax 75 mg/kg oral gavage): did not result in any survival advantage
- impaired cell viability [11]: 6-40%

Source: patent US20230293478A1, “NITROGEN-CONTAINING ANALOGS OF SALINOMYCIN FOR USE IN ACUTE MYELOID LEUKEMIA” (Centre National de la Recherche Scientifique (CNRS), priority 2020, published 2023)
